Results reported in PubChem BioAssay (NCI).
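96-well plates; 48 h exposure; 5 concentrations. Endpoints by linear interpolation between flanking doses. Not reached: highest tested concentration assigned. GI50 marks 50% less growth. TGI marks complete inhibition of growth.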

Tests used:
Test in all cases: inhibition of tumour cell growth, NCI panel, 48 h
SNB-19 CNS = test system: SNB-19 CNS
NCI-H522 lung = test system: NCI-H522 lung
SK-MEL-2 melanoma = test system: SK-MEL-2 melanoma
MOLT-4 leukemia = test system: MOLT-4 leukemia
UO-31 renal = test system: UO-31 renal
HL-60(TB) leukemia = test system: HL-60(TB) leukemia
UACC-62 melanoma = test system: UACC-62 melanoma
HOP-92 NSCLC = test system: HOP-92 NSCLC
SF-539 CNS = test system: SF-539 CNS
OVCAR-8 ovarian = test system: OVCAR-8 ovarian

Row | SMILES | GI50 (SNB-19 CNS) | TGI (SNB-19 CNS) | GI50 (NCI-H522 lung) | TGI (NCI-H522 lung) | GI50 (SK-MEL-2 melanoma) | TGI (SK-MEL-2 melanoma) | GI50 (MOLT-4 leukemia) | TGI (MOLT-4 leukemia) | GI50 (UO-31 renal) | TGI (UO-31 renal) | GI50 (HL-60(TB) leukemia) | TGI (HL-60(TB) leukemia) | GI50 (UACC-62 melanoma) | TGI (UACC-62 melanoma) | GI50 (HOP-92 NSCLC) | TGI (HOP-92 NSCLC) | GI50 (SF-539 CNS) | TGI (SF-539 CNS) | GI50 (OVCAR-8 ovarian) | TGI (OVCAR-8 ovarian)
1 | C=C1C(=O)O[C@H]2[C@H]1CC(=O)/C(C)=C\CC[C@@]1(C)O[C@@H]21 | 7.62 µg/mL | 16.1 µg/mL | 0.411 µg/mL | 0.957 µg/mL | 3.99 µg/mL | 8.47 µg/mL | 1.12 µg/mL | 4.7 µg/mL | 2.61 µg/mL | 5.85 µg/mL | 0.264 µg/mL | 4.19 µg/mL | 2.75 µg/mL | 6.02 µg/mL | 1.94 µg/mL | 4.32 µg/mL | 2.64 µg/mL | 7.16 µg/mL | 3.98 µg/mL | 7.81 µg/mL
2 | COc1cc2c3c(n(C)c(=O)c2cc1OC)-c1cc2c(cc1/C3=C\[C@@H](N)CCCCN)OCO2 | 1460 nM | > 100 µM | 1370 nM | > 23.2 µM | 13.2 µM | > 100 µM | 389 nM | 3.45 µM | 8 µM | > 100 µM | 2150 nM | 8.73 µM | 467 nM | 7.38 µM | 1700 nM | 29.4 µM | 335 nM | 12.5 µM | 2660 nM | > 45.8 µM
3 | CCC(C)CC(CC)NCCN1CCN(C(CC)CC(C)CC)C1=S (stereo not given) | 1730 nM | 3.87 µM | 1740 nM | 3.24 µM | 1.89 µM | 3.41 µM | 2220 nM | 5.19 µM | 2.39 µM | 8.68 µM | 1930 nM | 3.77 µM | 1650 nM | 3.05 µM | 1050 nM | 2.96 µM | 1970 nM | 3.43 µM | 1660 nM | 3.05 µM
4 | COc1ccc(C(=O)N/N=C/c2ccc(O)cc2O)cc1Nc1ccnc(C(F)(F)F)c1 | 816 nM | 56.7 µM | 3220 nM | 27.3 µM | 9.23 µM | 30.6 µM | 357 nM | 2.59 µM | 2.64 µM | > 63.8 µM | 291 nM | 0.923 µM | 448 nM | 11.4 µM | 347 nM | 8.43 µM | 404 nM | 7.78 µM | 919 nM | > 71.2 µM
5 | N#Cc1nc(Nc2ccc([N+](=O)[O-])cc2)sc1N | – | > 95.1 µM | – | 32.1 µM | – | 53.2 µM | – | > 82 µM | – | > 59.7 µM | – | > 29.8 µM | – | 50.8 µM | – | 75 µM | – | 18.7 µM | – | > 100 µM
6 | Nc1nc(Nc2ccc3c(c2)CCC(N2CCCC2)CC3)nn1-c1cc2c(nn1)-c1ccccc1CCC2 (stereo not given) | 1600 nM | 3.4 µM | 1710 nM | 3.27 µM | 1.04 µM | 2.53 µM | 681 nM | 2.86 µM | 0.668 µM | 2.13 µM | 1010 nM | 2.75 µM | 1500 nM | 3.07 µM | 234 nM | 1.69 µM | 787 nM | 2.1 µM | 1140 nM | 2.85 µM
7 | NCC(=O)CCC(=O)O | > 100000 nM | > 100 µM | > 100000 nM | > 100 µM | > 100 µM | > 100 µM | > 100000 nM | > 100 µM | > 100 µM | > 100 µM | > 100000 nM | > 100 µM | > 100000 nM | > 100 µM | > 100000 nM | > 100 µM | > 100000 nM | > 100 µM | > 100000 nM | > 100 µM
8 | COC1(OC)c2ccccc2C2(O)c3ccccc3C(=O)C12 (stereo not given) | – | > 100 µM | – | 47 µM | – | > 100 µM | – | 80.9 µM | – | 86.8 µM | – | 46 µM | – | > 100 µM | – | > 100 µM | – | > 100 µM | – | > 100 µM
9 | CC(C)(C)n1cc(-c2ccnc(NCCNS(=O)(=O)c3cccc4ccccc34)c2)c(-c2cccc(F)c2)n1 | 34900 nM | > 100 µM | 15500 nM | 44.5 µM | 21.4 µM | 57.9 µM | 10000 nM | > 100 µM | 10.4 µM | 59.8 µM | 17500 nM | 44.5 µM | 17300 nM | 47.7 µM | 2740 nM | 21.2 µM | 16100 nM | 31.7 µM | 26700 nM | > 100 µM
10 | c1ccc2c(c1)ccc1c3ccccc3ccc21 | > 50000 nM | > 50 µM | > 50000 nM | > 50 µM | > 50 µM | > 50 µM | > 50000 nM | > 50 µM | > 50 µM | > 50 µM | > 50000 nM | > 50 µM | > 50000 nM | > 50 µM | > 50000 nM | > 50 µM | > 50000 nM | > 50 µM | > 50000 nM | > 50 µM
11 | O=C(/C=C/c1ccc(Cl)cc1)c1ccncc1 | – | > 100 µM | – | > 100 µM | – | > 100 µM | – | 60.3 µM | – | > 100 µM | – | 67.3 µM | – | > 100 µM | – | > 100 µM | – | > 100 µM | – | > 100 µM
12 | COC(=O)[C@]12CC[C@@H](C)[C@H](C)[C@@H]1C1=CC[C@@H]3[C@@]4(C)C=C(O)C(=O)C(C)=C4CC[C@@]3(C)[C@]1(C)CC2 | 18700 nM | 40.9 µM | 3920 nM | 14.7 µM | 14.6 µM | 31.6 µM | 4710 nM | 20.7 µM | 11.6 µM | 26.3 µM | 13700 nM | 35.7 µM | 14500 nM | 31.3 µM | 11600 nM | 26.2 µM | 12200 nM | 27.2 µM | 16900 nM | 39.4 µM
13 | CN1CCN(c2cc(Nc3cc(C4CC4)[nH]n3)nc(Nc3ccc(CC(=O)NCc4cccc(F)c4)cc3)n2)CC1 | 2250 nM | 23.4 µM | 1530 nM | 7.08 µM | 1.99 µM | 9.32 µM | 248 nM | 19.8 µM | 1.69 µM | 4.73 µM | 713 nM | 3.06 µM | 1620 nM | 16.2 µM | 288 nM | 4.8 µM | 858 nM | 2.28 µM | 2180 nM | 30.1 µM
